In brackets after ≈: the same amount, converted by molar mass.
What was measured:
[1] = system: K562/adr (drug-resistant, chronic myeloid leukemia, CML); assay: MTT growth inhibition of leukemia cells, 72 h; type: cell-based, human; conditions: Homo sapiens, K562/Adr; for IC50: read-out: IC50; for IC90: read-out: IC90
Description: (§1) Leukemia cell lines: leukemia cell lines: K562/adr (drug-resistant, chronic myeloid leukemia, CML), NB4 (acute promyelocytic leukemia, AML), Kasumi-1 (acute myeloid leukemia M2 type, AML-M2), and Jurkat (acute lymphoblastic leukemia, ALL), all of which are donated by Cancer Research Institute of Zhejiang University, China; and H9 (acute lymphoblastic leukemia, ALL), which is purchased from China Center for Type Culture Collection (CCTCC).
(§2) The standard sample of tanshinone I (TA) and the 2-aminated methylene or 2-esterified methylene tanshinone I derivatives of the present invention are sufficiently dissolved with dimethylsulfoxide to produce a stock solution of 10 mg/mL, which is refrigerated at 4° C. and stored in dark, and is diluted with a cell culture medium to the desired concentration prior to experimentation.
(§3) Obtaining 6000 well-growing leukemia cells and inoculating them into wells of a 96-well cell culture plate. The culture medium is the RPMI-1640 cell culture medium containing 10% fetal bovine serum. After adding on the second day the 2-aminated methylene or 2-esterified methylene tanshinone I derivatives of different concentrations and mixing uniformly, placing the plate in a carbon dioxide cell incubator (5% CO2) at 37° C. and incubated for 72 hours. Then the viable cell concentration is determined by MTT method.

[2] = system: NB4 (acute promyelocytic leukemia, AML); assay: MTT growth inhibition of leukemia cells, 72 h; type: cell-based, human; conditions: Homo sapiens, NB4, 72 h; for IC50: read-out: IC50; for IC90: read-out: IC90
Description: as §1, §2, §3

[3] = system: Kasumi-1 (acute myeloid leukemia M2 type, AML-M2); assay: MTT growth inhibition of leukemia cells, 72 h; type: cell-based, human; conditions: Homo sapiens, Kasumi-1, 72 h; for IC50: read-out: IC50; for IC90: read-out: IC90
Description: as §1, §2, §3

[4] = system: H9 (acute lymphoblastic leukemia, ALL); assay: MTT growth inhibition of leukemia cells, 72 h; type: cell-based, human; conditions: Homo sapiens, H9, 72 h; for IC50: read-out: IC50; for IC90: read-out: IC90
Description: as §1, §2, §3

[5] = system: Jurkat (acute lymphoblastic leukemia, ALL); assay: MTT growth inhibition of leukemia cells, 72 h; type: cell-based, human; conditions: Homo sapiens, 72 h; for IC50: read-out: IC50; for IC90: read-out: IC90
Description: as §1, §2, §3

[6] = system: RPMI8226 (multiple myeloma); assay: MTT growth inhibition of multiple myeloma cells, 72 h; type: cell-based, human; conditions: Homo sapiens, RPMI 8226, 72 h; for IC50: read-out: IC50; for IC90: read-out: IC90
Procedure: Myeloma cell lines: RPMI8226 (multiple myeloma), purchased from Fuxiang Bio-tech Co. Ltd., Shanghai, China.
as §2
as §3, with “myeloma” for “leukemia”, “cells as above” for “cells”, “1640” for “RPMI-1640”, “adding” for “adding on the second day”

MG63 (osteosarcoma) = assay: MTT growth inhibition of human solid tumor cells, 72 h; type: cell-based; conditions: Homo sapiens, MG-63, 72 h; for IC50: read-out: IC50; for IC90: read-out: IC90
Procedure: (§4) Hep-2 (laryngeal carcinoma), A549 (human lung cancer), CaES-17 (esophageal cancer cell), PC-3 (prostate cancer), CNE (nasopharyngeal carcinoma cell), and SK-OV-3 (ovarian cancer cell), all of which are purchased from China Center For Type Culture Collection; RKO (human colon adenocarcinoma cell), MGC 803 (human gastric cancer cell), MG63 (osteosarcoma) and U87 MG (malignant glioma cell), all of which are purchased from Fuxiang Bio-tech Co. Ltd., Shanghai, China; PANC-1 (pancreatic cancer), Hep G2 (human liver cancer cell), Becap37 (human breast cancer cell) and Hela (human cervical cancer cell), all of which are donated by Cancer Research Institute of Zhejiang University, China.
as §2
(§5) Obtaining 4000 well-growing human solid tumor cells and inoculating them into wells of a 96-well cell culture plate. The culture medium is DMEM High Glucose cell culture medium containing 10% fetal bovine serum. The plate is placed in a carbon dioxide cell incubator (5% CO2) at 37° C. and incubated for 24 hours. After adding the 2-aminated methylene or 2-esterified methylene tanshinone I derivatives of different concentrations and mixing uniformly, the plate is placed in a carbon dioxide cell incubator (5% CO2) at 37° C. and incubated for 72 hours. Then the viable cell concentration is determined by the MTT method.

[7] = system: MGC 803 (human gastric cancer cell); assay: as above; type: cell-based; conditions: Homo sapiens, MGC-803, 72 h; for IC50: read-out: IC50; for IC90: read-out: IC90
Procedure: as §4, §2, §5

[8] = system: Hep-2 (laryngeal carcinoma); assay: as above; type: cell-based; conditions: Homo sapiens, HEp-2, 72 h; for IC50: read-out: IC50; for IC90: read-out: IC90
Procedure: as §4, §2, §5

[9] = system: Becap37 (human breast cancer cell); assay: as above; type: cell-based; conditions: Homo sapiens, Becap-37, 72 h; for IC50: read-out: IC50; for IC90: read-out: IC90
Procedure: as §4, §2, §5

[10] = system: SK-OV-3 (ovarian cancer cell); assay: as above; type: cell-based; conditions: Homo sapiens, SK-OV-3, 72 h; for IC50: read-out: IC50; for IC90: read-out: IC90
Procedure: as §4, §2, §5

[11] = system: Hep G2 (human liver cancer cell); assay: as above; type: cell-based; conditions: Homo sapiens, HepG2, Hep G2, 72 h; for IC50: read-out: IC50; for IC90: read-out: IC90
Procedure: as §4, §2, §5

[12] = system: RKO (human colon adenocarcinoma cell); assay: as above; type: cell-based; conditions: Homo sapiens; for IC50: read-out: IC50; for IC90: read-out: IC90
Procedure: as §4, §2, §5

[13] = system: CaES-17 (esophageal cancer cell); assay: as above; type: cell-based; conditions: Homo sapiens, CaEs17, CaEs-17, 72 h; for IC50: read-out: IC50; for IC90: read-out: IC90
Procedure: as §4, §2, §5

A549 (human lung cancer) = assay: as above; type: cell-based; conditions: Homo sapiens, A549, 72 h; for IC50: read-out: IC50; for IC90: read-out: IC90
Procedure: as §4, §2, §5

[14] = system: U87 MG (malignant glioma cell); assay: as above; type: cell-based; conditions: Homo sapiens, U-87 MG, U87-MG, 72 h; for IC50: read-out: IC50; for IC90: read-out: IC90
Procedure: as §4, §2, §5

[15] = system: Hela (human cervical cancer cell); assay: as above; type: cell-based; conditions: Homo sapiens, HeLa, 72 h; for IC50: read-out: IC50; for IC90: read-out: IC90
Procedure: as §4, §2, §5

[16] = system: CNE (nasopharyngeal carcinoma cell); assay: as above; type: cell-based; conditions: Homo sapiens; for IC50: read-out: IC50; for IC90: read-out: IC90
Procedure: as §4, §2, §5

[17] = system: PANC-1 (pancreatic cancer); assay: as above; type: cell-based; conditions: Homo sapiens, PANC-1, 72 h; for IC50: read-out: IC50; for IC90: read-out: IC90
Procedure: as §4, §2, §5

PC-3 (prostate cancer) = assay: as above; type: cell-based; conditions: Homo sapiens, PC-3, 72 h; for IC50: read-out: IC50; for IC90: read-out: IC90
Procedure: as §4, §2, §5

| IC50 [1] [µg/mL] | IC90 [1] [µg/mL] | IC50 [2] [µg/mL] | IC90 [2] [µg/mL] | IC50 [3] [µg/mL] | IC90 [3] [µg/mL] | IC50 [4] [µg/mL] | IC90 [4] [µg/mL] | IC50 [5] [µg/mL] | IC90 [5] [µg/mL] | IC50 [6] [µg/mL] | IC90 [6] [µg/mL] | IC50 (MG63 (osteosarcoma)) [µg/mL] | IC90 (MG63 (osteosarcoma)) [µg/mL] | IC50 [7] [µg/mL] | IC90 [7] [µg/mL] | IC50 [8] [µg/mL] | IC90 [8] [µg/mL] | IC50 [9] [µg/mL] | IC90 [9] [µg/mL] | further results | Structure (SMILES) |
| --- | --- | --- | --- | --- | --- | --- | --- | --- | --- | --- | --- | --- | --- | --- | --- | --- | --- | --- | --- | --- | --- |
| 0.78 (≈ 1.74 µM) | 3.48 (≈ 7.78 µM) | 1.42 (≈ 3.17 µM) | 3.85 (≈ 8.6 µM) | 0.42 (≈ 0.938 µM) | 0.97 (≈ 2.17 µM) | 0.6 (≈ 1.34 µM) | 1.8 (≈ 4.02 µM) | 0.89 (≈ 1.99 µM) | 3.47 (≈ 7.75 µM) | 2.64 (≈ 5.9 µM) | 7.68 (≈ 17.2 µM) | 4.88 (≈ 10.9 µM) | > 16 | 6.3 (≈ 14.1 µM) | 14.1 (≈ 31.4 µM) | 6.81 (≈ 15.2 µM) | > 16 | 5.04 (≈ 11.3 µM) | 11.6 (≈ 26 µM) | IC50 [10]: > 16 µg/mL; IC90 [10]: > 16 µg/mL; IC50 [11]: 5.41 µg/mL (≈ 12.1 µM); IC90 [11]: 22.6 µg/mL (≈ 50.4 µM); IC50 [12]: 0.47 µg/mL (≈ 1.05 µM); IC90 [12]: > 16 µg/mL; IC50 [13]: 6.33 µg/mL (≈ 14.1 µM); IC90 [13]: 11.8 µg/mL (≈ 26.4 µM); IC50 (A549 (human lung cancer)): 3.3 µg/mL (≈ 7.37 µM); IC90 (A549 (human lung cancer)): 21.4 µg/mL (≈ 47.7 µM); IC50 [14]: 3.2 µg/mL (≈ 7.15 µM); IC90 [14]: 7.65 µg/mL (≈ 17.1 µM); IC50 [15]: 9.26 µg/mL (≈ 20.7 µM); IC90 [15]: > 16 µg/mL; IC50 [16]: 1.8 µg/mL (≈ 4.02 µM); IC90 [16]: 18 µg/mL (≈ 40.2 µM); IC50 [17]: 1.42 µg/mL (≈ 3.17 µM); IC90 [17]: 16 µg/mL (≈ 35.8 µM); IC50 (PC-3 (prostate cancer)): 3.21 µg/mL (≈ 7.17 µM); IC90 (PC-3 (prostate cancer)): 8.76 µg/mL (≈ 19.6 µM) | Cc1c(CN(C)CCOC(=O)C(C)(C)C)oc2c1C(=O)C(=O)c1c-2ccc2c(C)cccc12 [BS-TA-62] |
| 2.33 (≈ 5.23 µM) | 6.24 (≈ 14 µM) | 0.99 (≈ 2.22 µM) | 3.97 (≈ 8.9 µM) | 1.75 (≈ 3.93 µM) | 3.91 (≈ 8.77 µM) | 3.09 (≈ 6.93 µM) | 10.4 (≈ 23.2 µM) | 3 (≈ 6.73 µM) | 9.27 (≈ 20.8 µM) | 3.39 (≈ 7.6 µM) | 7.85 (≈ 17.6 µM) | 2.87 (≈ 6.44 µM) | 14 (≈ 31.4 µM) | 5.38 (≈ 12.1 µM) | 16 (≈ 35.9 µM) | 3.96 (≈ 8.88 µM) | 19.1 (≈ 42.9 µM) | 4.74 (≈ 10.6 µM) | 10.8 (≈ 24.1 µM) | IC50 [10]: > 16 µg/mL; IC90 [10]: > 16 µg/mL; IC50 [11]: 4.82 µg/mL (≈ 10.8 µM); IC90 [11]: 16 µg/mL (≈ 35.9 µM); IC50 [12]: 1.46 µg/mL (≈ 3.27 µM); IC90 [12]: 13.4 µg/mL (≈ 30.1 µM); IC50 [13]: 6.36 µg/mL (≈ 14.3 µM); IC90 [13]: 12.7 µg/mL (≈ 28.4 µM); IC50 (A549 (human lung cancer)): 6.23 µg/mL (≈ 14 µM); IC90 (A549 (human lung cancer)): > 16 µg/mL; IC50 [14]: 5.71 µg/mL (≈ 12.8 µM); IC90 [14]: 14.2 µg/mL (≈ 31.7 µM); IC50 [15]: 4.5 µg/mL (≈ 10.1 µM); IC90 [15]: 14.9 µg/mL (≈ 33.3 µM); IC50 [16]: 4.1 µg/mL (≈ 9.2 µM); IC90 [16]: 45 µg/mL (≈ 101 µM); IC50 [17]: 3.31 µg/mL (≈ 7.42 µM); IC90 [17]: 12 µg/mL (≈ 27 µM); IC50 (PC-3 (prostate cancer)): 5.32 µg/mL (≈ 11.9 µM); IC90 (PC-3 (prostate cancer)): 12.6 µg/mL (≈ 28.2 µM) | Cc1c(COC(=O)c2ccnc(Cl)c2)oc2c1C(=O)C(=O)c1c-2ccc2c(C)cccc12 [BS-TA-A01] |

— US9328083B2, “2-aminated methylene or 2-esterified methylene tanshinone derivatives, and preparation method and application thereof” (HANGZHOU BENSHENG PHARMACEUTICAL CO., LTD., priority 2011, dated 2016)
